Source: patent US12545895B2, “Protection of beta cells from immune attack” (Joslin Diabetes Center, priority 2017, dated 2026)

System: NIT-1 cells
Test: CRISPR/Cas9 whole-genome loss-of-function (LOF) screen: GeCKO library-A infected NIT-1 cells transplanted into NOD.scid mouse with diabetic NOD splenocytes, gRNA sequencing of surviving graft
Assay type: in vivo
Conditions: surviving NIT-1 graft of one NOD.scid mouse, ~60 days, severely hyperglycemic; mini-seq
Description: A series of tools to run a CRISPR/Cas9 mediated whole-genome loss-of-function (LOF) screen were developed. The GeCKO V2 lentiviral pooled library was used that comprises guide RNAs (gRNAs) against every gene (Addgene, targeting >20,000 genes with 6 gRNAs/gene). This library was split into two sub-libraries (A and B), which each cover all targeted genes with 3 gRNAs/gene. These libraries cover the entire coding genome to potentially mutate every gene and also contain >1000 non-targeting gRNAs as internal negative controls. In the GeCKO library, Cas9 and gRNAs were incorporated into a single lentiviral vector to introduce these gene-targeting elements into beta cells by lentiviral infection.
A high-stringency LOF screen was done using a single mouse. In this model, 10^7 GeCKO library-A infected NIT-1 cells (multiplicity of infection (MOI)=0.3) were injected subcutaneously, and 10^7 diabetic NOD splenocytes were injected intravenously at the same time.
For sequencing, genomic DNA from explanted grafts was extracted with genome DNA midi prep kits, and the gRNA region was amplified from genomic DNA using established protocols.
Selection pressure (i.e., autoimmune attack) on transplanted NIT-1 cells was maximized by waiting until NOD.scid mice had become severely hyperglycemic (˜60 days, marked by the arrow) as shown in FIG. 4. Even after the blood glucose of one recipient NOD.scid mouse had reached approximately 500 mg/dL, approximately 50,000 cells from the remaining graft could be isolated. gRNAs were amplified from the genome DNA of the graft and surveyed by mini-seq (low-depth sequencing).
Since the GeCKO library (A library) only contain approximately 60,000 unique gRNAs, 10^6-10^7 sequencing reads was sufficient to cover the whole library and to achieve statistical significance. Typically, one high throughput sequencing reaction using the second generation Illumina system (e.g. NextSeq 500) can yield ˜150 millions of sequence reads, so multiple samples from different grafts were barcoded, mixed and sequenced together, thus greatly reducing sequencing costs.
The sequencing data was de-barcoded and then analyzed by bioinformatics analysis. Established analysis tools such as HiTSelect or MAGeCK were used for gRNA enrichment analysis. In sum, the ability to amplify, sequence and sub-clone gRNAs after in vivo selection allowed identification of genes whose suppression improved beta cell survival.
As expected with the high stringency selection, only 13 unique gRNAs that target 12 genes out of >60,000 gRNAs present in pre-implantation cells were identified. The number of times the gRNA was present in sequence (count), the frequency of the gRNA in the total reads, and the gene targeted by the gRNA are shown in Table 2. Two different gRNAs targeting Menl were found in the screen. The target genes in Table 2 encode for mouse SEQ ID Nos: 11-22 in Table 1, and the known human equivalents of these gene products are SEQ ID Nos: 1-10 in Table 1.

| Molecule | Count (number of times the gRNA was present in sequence) | Frequency (% of total reads) |
| --- | --- | --- |
| SEQ ID No: 23: gRNA targeting mouse Men1, sequence CACGCCCGAGCTGTCCAGTT (listed as DNA, chemistry not fully specified) | 4919 | 16.34 % of total reads |
| SEQ ID No: 24: gRNA targeting mouse Hivep2, sequence TACGCACTCATACTGATGTT (listed as DNA, chemistry not fully specified) | 4073 | 13.53 % of total reads |
| SEQ ID No: 25: gRNA targeting mouse Rnls, sequence CTACTCCTCTCGCTATGCTC (listed as DNA, chemistry not fully specified) | 3810 | 12.66 % of total reads |
| SEQ ID No: 26: gRNA targeting mouse Lgsn, sequence TGCAACCGCGAACCCTTACC (listed as DNA, chemistry not fully specified) | 3252 | 10.80 % of total reads |
| SEQ ID No: 27: gRNA targeting mouse GCN1 (Gcn1l1), sequence GCTTGACACTGCATCGATAT (listed as DNA, chemistry not fully specified) | 3228 | 10.72 % of total reads |
| SEQ ID No: 28: gRNA targeting mouse Gm3604, sequence ACTTTCGTATACAGATACTG (listed as DNA, chemistry not fully specified) | 3226 | 10.72 % of total reads |
| SEQ ID No: 29: gRNA targeting mouse Plin4, sequence CTGCCTCCTTAGTTCCGACA (listed as DNA, chemistry not fully specified) | 2529 | 8.40 % of total reads |
| SEQ ID No: 30: gRNA targeting mouse Med11, sequence TTTCACGCTCGATATCCTCC (listed as DNA, chemistry not fully specified) | 1346 | 4.47 % of total reads |
| SEQ ID No: 31: gRNA targeting mouse Tgm6, sequence CATCGGTGGCTGGGTCCTCC (listed as DNA, chemistry not fully specified) | 1225 | 4.07 % of total reads |
| SEQ ID No: 32: gRNA targeting mouse Zbed3, sequence GCGCGAGGCGGCCCTAATGC (listed as DNA, chemistry not fully specified) | 1160 | 3.85 % of total reads |
| SEQ ID No: 33: second gRNA targeting mouse Men1, sequence GCTGTATGACCTCGGACATC (listed as DNA, chemistry not fully specified) | 702 | 2.33 % of total reads |
| SEQ ID No: 34: gRNA targeting mouse Olfr911-ps1, sequence CTTCAAATGAGATCCACTGC (listed as DNA, chemistry not fully specified) | 503 | 1.67 % of total reads |
| SEQ ID No: 35: gRNA targeting mouse Grm2, sequence GCGGCATAACGCCACACCCG (listed as DNA, chemistry not fully specified) | 131 | 0.44 % of total reads |

System: NIT-1 cells
Test: Co-culture of NIT-1 cells with NOD splenocytes, active caspase 3 staining
Assay type: cell-based, mouse
Conditions: 24 hours, 50 splenocytes:1 NIT-1 cell, NIT-1 lines stably expressing gRNA, FIG. 7
Protocol: FIGS. 6A-6C show are in vitro co-culture system for studying NIT-1 cell death by NOD splenocytes. […] The ratios represent ratios of splenocytes to NIT-1 cells. For example, 50:1 indicates 50-times more splenocytes than NIT-1 cells, while 0:1 indicates NIT-1 cells cultured without splenocytes. P<0.0001=****.
NIT-1 cells were incubated for 24 hours with splenocytes at a ratio of 50 splenocytes:1 NIT-1 cell. P<0.05=*; P<0.01=**, and P<0.001=***.
There is little cell death over 24 hours of NIT-1 cells not co-cultured with NOD splenocytes (0:1 ratio of splenocytes to NIT-1 cells in FIG. 6B), as evidenced by weak staining of active caspase-3. In contrast, NIT-1 cells co-cultured with a high ratio of NOD splenocytes (50:1 ratio of splenocytes to NIT-1 cells in FIG. 6B) show high cell death, as evidenced by strong caspase-3 activity. […] This model can be used to study whether inhibiting or suppressing expression of target genes blocks or inhibits the ability of NOD splenocytes to mediate NIT-1 cell death over time.

| Molecule | NIT-1 cell death mediated by NOD splenocytes (activated caspase 3) |
| --- | --- |
| SEQ ID No: 23: gRNA targeting mouse Men1, sequence CACGCCCGAGCTGTCCAGTT (listed as DNA, chemistry not fully specified) | significantly decreased |
| SEQ ID No: 33: second gRNA targeting mouse Men1, sequence GCTGTATGACCTCGGACATC (listed as DNA, chemistry not fully specified) | significantly decreased |

System: NIT-1 beta cells
Test: Thapsigargin-induced ER stress, cell viability by MTT assay
Assay type: cell-based, mouse
Conditions: control NIT-1 cells, thapsigargin at different dosages, 3 days
Description: NIT-1 beta cells were genetically modified at two genes—1) Rnls; and 2) Zbed3 with CRISPR/Cas9 and guide RNAs (gRNAs) targeting Rnls and Zbed3, respectively. The modified NIT-1 cells had reduced expression of renalase (Rnls mutants) or zinc finger BED domain-containing protein 3 (Zbed3 mutants). ER stress was induced by thapsigargin, which blocks the sarco/endoplasmic reticulum Ca^2+-ATPase (SERCA) pump on the ER, thus depleting calcium from the ER and leading to misfolding of proteins in ER and eventually ER stress induced cell death. All cells were treated with thapsigargin for 3 days, and cell viability was evaluated by a standard MTT assay (see Mosmann T, J Immunol Methods 65(1-2):55-63 (1983)). […] Thus, inhibiting expression of the Rnls or Zbed3 protected beta cells from cell death induced by ER stress. See FIG. 8 (Rnls) and FIG. 9 (Zbed3).

| Molecule | beta cell death (cell viability, MTT) |
| --- | --- |
| C/C=C(/C)C(=O)O[C@H]1C(C)=C2[C@H]([C@@H]1OC(=O)CCCCCCC)[C@@](C)(OC(C)=O)C[C@H](OC(=O)CCC)[C@@]1(O)[C@H]2OC(=O)[C@@]1(C)O [thapsigargin] | induced beta cell death |
